Data reported in US11767282B2, “Composition biologically active to stenoma catenifer and sustained release preparation comprising the same for controlling insect pest” (Shin-Etsu Chemical Co., Ltd., priority 2021, dated 2023).
“Also recorded” adds a separate entry of the source.

Assays:
Stenoma catenifer [1] = settings: Stenoma catenifer males; Millar et al. 2008, Hoddle et al. 2009; cited from earlier work
Stenoma catenifer [2] = assay: field trap evaluation of sustained release preparations (white adhesive trap); format: in vivo; settings: field traps, versus (9Z)-9,13-tetradecadien-11-ynal (1) alone
Excerpt: A white adhesive trap was used for evaluation of the sustained release preparation. […] An adhesive substance is placed to the upper surface of the bottom plate, and the sustained release preparation A is directly mounted on the adhesive surface for use. In other words, the white adhesive trap has the structure in which only insect pests that come close to the sustained release preparation are captured, and the capture of untargeted insect pests are avoided as much as possible.
In the period of from September 23 and Nov. 25, 2019, the traps containing the respective sustained release preparations were installed in the orchards in which Stenoma catenifer lived. Adult male insect pests captured and killed in each trap were counted every 7 days. The control effect was evaluated by determining the relative value of the number of the insect pests captured by the sustained release preparation of Example 1 when regarding the total number of insect pests captured by the sustained release preparation of later-described Example 2 as 100.

[3] = system: tomato fruit borer (Neoleucinodes elegantalis); settings: added to sex pheromone main component (11E)-11-hexadecenol; Cabrera, J. Chem. Ecol. 2001; cited from earlier work

For CCCCC/C=C\C/C=C\CCCCCCCCCCCCC [(6Z,9Z)-6,9-tricosadiene], the “effect on attraction number in field attraction tests” value (shortened to “effect on attraction number”) (Stenoma catenifer [1]) is given as “did not affect the attraction number”.
For C=CC#C/C=C/CCCCCCCC=O [(9E)-9,13-tetradecadien-11-ynal], the “number of male adult insect pests captured compared with the comparative attractant” value (Stenoma catenifer [2]) was “increase in the total number of the captured insect pests”.
In the case of C=CC#C/C=C\CCCCCCCCO [(9Z)-9,13-tetradecadien-11-yn-1-ol], the “effect on attraction number” value (Stenoma catenifer [1]) is given as “reduced the attraction number; also recorded: attraction inhibitor”.
In the case of C=CC#C/C=C\CCCCCCCC=O [(9Z)-9,13-tetradecadien-11-ynal], the “effect on attraction number” value (Stenoma catenifer [1]) is given as “highest activity among the many attractant compositions; also recorded: attracted Stenoma catenifer”.
In the case of CCCC/C=C\CCCCCCCCCCO [(11Z)-11-hexadecenol], the “effect of addition on attracted number” value [3] is given as “greatly reduce the attracted number”.
